Laboratory results from article PMC8949931, “cADPR Does Not Activate TRPM2” (International Journal of Molecular Sciences, 2022).

Columns and labels:
[1] = molecular target: T1, drTRPM2 (TRPM2 from zebrafish) (Danio rerio, UniProt A0A0R4IMY7); assay: isothermal titration calorimetry (ITC), purified domain, […] °C; assay type: binding
T1 construct: isolated MHR1/2 domain, residues 1-419 of drTRPM2, N-terminal His6-tag
T1 sequence (A0A0R4IMY7 1-419): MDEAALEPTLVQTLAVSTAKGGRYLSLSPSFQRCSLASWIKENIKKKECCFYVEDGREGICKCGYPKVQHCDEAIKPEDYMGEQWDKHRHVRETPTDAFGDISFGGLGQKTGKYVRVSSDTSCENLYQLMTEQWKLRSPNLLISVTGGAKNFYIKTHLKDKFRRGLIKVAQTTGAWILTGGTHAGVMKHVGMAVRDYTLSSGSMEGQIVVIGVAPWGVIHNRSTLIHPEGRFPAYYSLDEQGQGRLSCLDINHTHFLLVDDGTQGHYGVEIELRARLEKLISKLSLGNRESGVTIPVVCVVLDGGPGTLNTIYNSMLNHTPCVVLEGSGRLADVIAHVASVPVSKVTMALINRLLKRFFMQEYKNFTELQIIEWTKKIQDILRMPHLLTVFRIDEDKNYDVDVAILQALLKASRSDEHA

human TRPM2 = molecular target: T2, human TRPM2 (Homo sapiens, UniProt O94759); assay: whole-cell patch clamp, […] coinfused with […] ADPR; assay type: cell-based
T2 construct: full-length channel stably expressed in HEK293 cells
T2 sequence (O94759 whole entry, the tested form may be a part): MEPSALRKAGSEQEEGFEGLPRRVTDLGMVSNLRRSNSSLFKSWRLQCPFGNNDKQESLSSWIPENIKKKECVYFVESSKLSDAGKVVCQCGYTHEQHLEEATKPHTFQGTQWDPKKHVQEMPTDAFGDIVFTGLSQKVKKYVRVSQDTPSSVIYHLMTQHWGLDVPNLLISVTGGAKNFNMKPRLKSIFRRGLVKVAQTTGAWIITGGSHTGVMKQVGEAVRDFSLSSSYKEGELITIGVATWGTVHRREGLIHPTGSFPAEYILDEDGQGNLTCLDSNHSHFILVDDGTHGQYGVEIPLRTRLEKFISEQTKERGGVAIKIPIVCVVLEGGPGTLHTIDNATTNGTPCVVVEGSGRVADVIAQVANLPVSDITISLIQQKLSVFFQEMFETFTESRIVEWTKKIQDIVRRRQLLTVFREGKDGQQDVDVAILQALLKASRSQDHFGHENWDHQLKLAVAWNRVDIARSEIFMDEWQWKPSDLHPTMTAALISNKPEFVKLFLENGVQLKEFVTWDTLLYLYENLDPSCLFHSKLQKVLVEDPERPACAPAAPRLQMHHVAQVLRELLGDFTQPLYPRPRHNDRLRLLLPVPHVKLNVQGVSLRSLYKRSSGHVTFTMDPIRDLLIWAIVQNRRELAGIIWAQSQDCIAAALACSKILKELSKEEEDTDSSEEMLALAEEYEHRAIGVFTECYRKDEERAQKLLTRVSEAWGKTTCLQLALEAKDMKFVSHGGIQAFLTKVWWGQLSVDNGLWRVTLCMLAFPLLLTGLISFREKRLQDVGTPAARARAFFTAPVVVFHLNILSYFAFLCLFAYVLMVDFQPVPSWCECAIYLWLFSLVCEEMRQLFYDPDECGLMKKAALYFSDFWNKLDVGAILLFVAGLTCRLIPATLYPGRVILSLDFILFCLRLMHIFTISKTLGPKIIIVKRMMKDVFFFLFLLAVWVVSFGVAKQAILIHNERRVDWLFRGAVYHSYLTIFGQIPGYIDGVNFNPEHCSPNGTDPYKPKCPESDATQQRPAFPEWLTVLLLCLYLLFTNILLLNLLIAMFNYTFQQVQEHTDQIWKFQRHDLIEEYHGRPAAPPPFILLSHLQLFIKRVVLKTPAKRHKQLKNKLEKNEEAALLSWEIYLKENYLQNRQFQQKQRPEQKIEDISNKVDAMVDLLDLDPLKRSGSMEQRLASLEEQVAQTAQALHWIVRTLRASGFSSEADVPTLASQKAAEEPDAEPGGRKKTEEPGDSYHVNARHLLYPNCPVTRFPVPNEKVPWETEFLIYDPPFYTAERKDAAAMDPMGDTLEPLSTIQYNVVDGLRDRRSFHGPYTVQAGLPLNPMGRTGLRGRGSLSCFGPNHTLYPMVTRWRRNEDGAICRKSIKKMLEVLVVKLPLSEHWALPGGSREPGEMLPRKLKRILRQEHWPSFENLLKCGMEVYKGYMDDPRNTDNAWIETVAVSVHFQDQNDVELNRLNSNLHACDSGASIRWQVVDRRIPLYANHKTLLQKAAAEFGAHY

Structure (SMILES) | Kd [1] | whole-cell patch clamp, 1 mM coinfused with 125 μM ADPR (human TRPM2)
Nc1ncnc2c1nc(Br)n2[C@@H]1O[C@H](COP(=O)(O)OP(=O)(O)OC[C@H]2OC(O)[C@H](O)[C@@H]2O)[C@@H](O)[C@H]1O (stereo partly drawn) [8-Br-ADPR] | 1.4 µM | 8-Br-ADPR and 8-Br-cADPR reduce the ADPR-induced current in TRPM2-expressing HEK293 cells
Nc1ncnc2c1ncn2[C@@H]1O[C@H](COP(=O)(O)OP(=O)(O)OC[C@H]2OC(O)[C@H](O)[C@@H]2O)[C@@H](O)[C@H]1O (stereo partly drawn) [ADPR] | 2.2 µM | 
